Assay [1] concerns the target T1, GST-huANT3 recombinantly produced in E. coli (membranes) (Homo sapiens, UniProt P12236).
T1 construct: Gly-Ser-Pro-Gly-Ile-Leu-Met, where “Met” indicates the amino acid encoded by the translation initiation codon of huANT3; made in house; host or cells: E. coli (crude membrane preparation)
T1 sequence (P12236 1-298): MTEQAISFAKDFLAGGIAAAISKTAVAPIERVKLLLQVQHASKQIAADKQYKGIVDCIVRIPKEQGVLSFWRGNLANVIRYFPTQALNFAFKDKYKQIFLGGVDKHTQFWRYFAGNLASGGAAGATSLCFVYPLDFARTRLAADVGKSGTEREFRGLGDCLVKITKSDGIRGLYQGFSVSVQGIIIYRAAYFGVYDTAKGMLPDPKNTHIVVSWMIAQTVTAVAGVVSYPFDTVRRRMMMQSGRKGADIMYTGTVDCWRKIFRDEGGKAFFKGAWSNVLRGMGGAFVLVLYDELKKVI
The assay is described as follows: Saturation binding of [32P]ATP to E. coli membranes, huANT3-producing cells. Particulars: atractyloside 10μM added to the assay. The procedure: Following arabinose induction, transformed or sham transformed (vector only) E coli were collected by centrifugation at 2000 g for 10 min. The bacterial pellets were resuspended in MSB, to which lysozyme (100 μg/ml) was added. After 20 min at room temperature, the lysates were subjected to one freeze-thaw cycle followed by sonication as described above. The resultant membrane preparation was used for binding assays.
[…] The membranes with bound ATP were sedimented by centrifugation at 5000 g for 5 min, and washed once with binding buffer. Membrane pellets were then mixed with 5 ml scintillation cocktail and counted.

The target in assay [2] is T2, Sf9/huANT3 mitochondria (Homo sapiens, UniProt P12236).
T2 construct: expressed in transfected cells; host or cells: Spodoptera frugiperda Sf9 cells infected with recombinant baculovirus; isolated mitochondria
T2 sequence (P12236 1-298): T1 sequence (P12236 1-298)
The experiment in a line: Homologous competition of [32P]ATP binding to Sf9/huANT3 mitochondria. Particulars: FIG. 8. As for the experimental part:
To estimate maximal binding and the extent of overexpression of the huANT3, 25 μg of membrane protein was incubated with varying amounts of [^32P]ATP (1-500 μM) in binding buffer (120 mM KCl, 10 mM Tris, 1 mM EDTA, pH 7.4) for 2 hr at room temperature. The membranes with bound ATP were sedimented by centrifugation at 5000 g for 5 min, and washed once with binding buffer. Membrane pellets were then mixed with 5 ml scintillation cocktail and counted.
Sf9 cells expressing huANT3 were grown in spinner flasks. The cells were harvested by centrifugation at 2,000 g for 5 min. The cell pellet was resuspended in MSB and subjected to 3 freeze-thaw cycles. Cell membranes and debris were removed by centrifugation at 600 g for 5 min; mitochondria were collected by centrifuging the supernatant at 20,000 g for 15 min. The mitochondrial pellets were suspended in MSB, and used for binding assays as described above. Homologous competition of [^32P]ATP binding was performed using 25 μg mitochondrial protein per assay.

In assay [3] the target is T3, T. ni/huANT3 mitochondria (Homo sapiens, UniProt P12236).
T3 construct: expressed in transfected cells; host or cells: Trichoplusia ni cells infected with recombinant baculovirus (cells prepared by PharMingen); isolated mitochondria
T3 sequence (P12236 1-298): T1 sequence (P12236 1-298)
The experiment in a line: 125I-compound 24 competition binding (Tube Assay), mitochondria from T. ni cells expressing huANT3. As for the experimental part: Atractyloside analogs (Example 6; Table 1; see also Examples 7-9) were also used in pseudo-homologous competition binding assays using T. ni/huANT3 mitochondria or bovine mitochondria. Mitochondria from noninfected T. ni cells, or T. ni cells infected with a baculovirus expressing huANT3 (see Example 3) were prepared as follows: […] cells were prepared by a subcontractor (PharMingen, San Diego, Calif.) as portions of about 250 mg of cells per tube. Each portion was suspended in 1 ml of MSB with protease inhibitors (leupeptin, final concentration 10 ug/ml; pepstatin, final concentration 10 ug/ml; aprotinin, final concentration, 2 ug/ml; phenylmethylsulfonyl fluoride, [PMSF], final concentration, 100 μM; all from Sigma Chemical Co., St. Louis, Mo.). The resuspended cell suspensions were frozen and thawed twice, then homogenized using a rotating teflon-coated probe and a close-fitting glass container (10 passes). The cellular homogenate was centrifuged (3,700 rpm, approximately 1,500×g) at 4° C. for 5 minutes; this supernatant from the first spin was saved. The pellet was washed with about 500 μl of MSB with protease inhibitors, centrifuged (3,800 rpm, approximately 1,600×g) at 4° C. for 5 minutes, and supernatant from this spin was combined with the supernatant from the first spin. […]
The mitochondrial preparations were divided into aliquots (typically, 50μl for T. ni mitochondria or 20 μl for bovine mitochondria) and then either used directly in assays or flash frozen and stored at −80° C. The total protein content in the mitochondrial preparations was determined using the enhanced protocol (30 minutes at 60° C.; see http://www.ruf.rice.edu/˜bioslabs/methods/protein/BCA.html) of the bicinchoninic acid (BCA) assay (available in kit form from Pierce, Rockford, Ill.). […]
Unbound ^125I-compound 24 was removed by aspiration. […] The resultant pellets were aspirated and the radioactivity (dpm) in each was determined by gamma counting.

The source of these data is patent publication US6906175B2, “Production of adenine nucleotide translocator (ANT), novel ANT ligands and screening assays therefor” (priority 1998, dated 2005).

Molecules are shown by their SMILES. “Also recorded” adds a separate entry of the source.

In the case of `C=C1[C@@H]2CCC3[C@@](CC[C@@H]4[C@H](C(=O)O)C[C@@H](O[C@@H]5O[C@H](CO)[C@@H](OS(=O)(=O)[O-])[C@H](OS(=O)(=O)[O-])[C@H]5OC(=O)CC(C)C)C[C@@]34C)(C2)[C@@H]1O.[K+].[K+]` (stereo partly shown) [ATR, atractyloside], the “effect on ATP binding” value in assay [1] was “abolished”. Moreover, the “displacement of ATP binding” value in assay [2] is listed as “displaced by low concentrations of atractyloside”. Moreover, the “affinity relative to the low affinity ANT ligand ADP” value in assay [3] (mitochondria from T. ni cells expressing huANT3, 1 μg protein/tube, FIG. 14) is listed as “about 1,000 fold”. Besides, the “competitive inhibition of 125I-compound 24 binding (in words)” value in assay [3] (mitochondria from T. ni cells expressing huANT3, FIGS. 12, 14, 15) was “slightly higher affinity than compound 24; also recorded: increasingly inhibited by higher concentrations of ATR”.
